Here are results for two compounds from patent publication US20210017607A1, “Methods of Predicting Responsiveness to Cancer Therapies” (The University of Chicago, priority 2019, published 2021).

The subject of the assay is Myc-CAP (STING^lo) tumors. The assay is described as follows: Myc-CAP syngeneic tumor growth. Format: in vivo, mouse. To be noted: immunocompetent syngeneic mice. Here is the method: FIGS. 25A and 25B. […] (25A-25B) Myc-CAP (STING^lo) tumor-bearing syngeneic mice were treated with the indicated drug(s) until untreated tumors reached approx. 2500 mm^3. Tumor volume curves for duration of treatment are shown.
FIGS. 26A-26D. […] Immunodeficient athymic nude (26A) and NOD-SCID (26B) mice were engrafted with Myc-CAP (STING^lo) tumors and treated with the indicated drug(s) until untreated tumors reached approx. 2000 mm^3. Tumor volume curves for duration of treatment are shown. For 26A-26B, n=3-4 mice per group. (26C-26D) Single-cell suspensions were generated from harvested tumors and analyzed by flow cytometry for the indicated immune cell populations and their activation states. Data are represented relative to CD45+ immune cells. For 26C-26D, n=3-5 animals per treatment group from 2 independent experiments. Significance/p-values were calculated by […].
FIGS. 29A-29M. […] Myc-CAP cancer cells were treated with the indicated drugs singly or in combination for 36 hours. (29A) Cells were stained with anti-mouse specific p-γH2AX antibody and a fluorescently labeled secondary antibody for determination of DNA DSBs, which were quantified by confocal microscopy. (29B) Protein extracts from cells in 29A were analyzed for the indicated pharmacodynamic biomarkers by western blotting; (29C) Annexin V-PI staining was done to assess frequency of live cells (Annexin V^− PI^−) following drug treatment. (29D) Ultracentrifugation was utilized to purify microvesicles (MVs) from supernatants in treatment groups in (29A) and associated DNA DSBs was quantified by Nanodrop®. Independent experiments n=2. (29E) Ultracentrifugation was utilized to purify MVs from supernatants in indicated treatment groups in FIG. 17A, and associated DNA DSBs were quantified by Nanodrop®; n=2 independent experiments. (29F) Syngeneic mice were engrafted with Myc-CAP (STING^lo) cells, and tumors were harvested when the tumor volume reached 400 mm^3. Single cell suspensions of the tumors were treated with the indicated drug(s), in the presence or absence of GW4869 (MV biogenesis inhibitor). (29G) Bone marrow derived macrophage (BMDMs) were co-cultured for 30 hours with supernatants (−/+ exogenous 50 units of DNase I pre-treatment for 30 minutes) from Myc-CAP cells that were treated with the indicated drug(s) for 36 hours. (29H) cGAMP (10 μg/mL) was pre-incubated with 10 units of DNAse I or mock control for 30 minutes and then added to BMDMs for 30 hours. (29I-29L) STING^+/+/STING^−/− BMDMs were co-cultured for 36 hours with supernatants from Myc-CAP and B6-Myc cancer cells that were treated with the indicated drug(s) for 36 hours. Supernatants were collected from 29F-29L at the end of treatment and analyzed for IFNβ1 by ELISA. (29M) Myc-CAP (STING^lo) tumor-bearing mice were treated with the indicated drug(s) until tumors first reached approx. 2500 mm^3. For the degerelix/rucaparib/buparlisib combination, additional cohorts of mice underwent concomitant treatment with STING antagonist H-151 or GW4869. Tumor volume was recorded daily for duration of experiment. For in vitro experiments, n=2 independent experiments and for in vivo experiments n=3-4 animals /group.

As to `Nc1cc(C(F)(F)F)c(-c2cc(N3CCOCC3)nc(N3CCOCC3)n2)cn1` [buparlisib], the tumor growth response entry is given as “not observed”.
Next, `CNCc1ccc(-c2[nH]c3cc(F)cc4c3c2CCNC4=O)cc1` [rucaparib]: “not observed”.
